According to publication PMC6212544, “Identification and Characterization of Novel CFTR Potentiators” (Frontiers in Pharmacology, 2018):

How the values were obtained:
[1] = target: T1, F508del CFTR (Homo sapiens, UniProt P13569, DEL508-508); test: YFP halide assay, CFBe41o- cells, low temperature rescued F508del CFTR; assay type: cell-based; conditions: 27°C 24 h, 10 μM forskolin, read-out: EC50, potentiation of low temperature rescued F508del CFTR
Protocol: CFBe41o- cells were plated in black 384-well microplates at a density of 1,500 cells per well. After 24 h, cells were transduced with adenoviruses containing F508del CFTR and YFP (H148Q/I152L/) F47L using a multiplicity of infection of 30 infectious units per cell for each adenovirus. The next day, for the low temperature corrected assay, cells were incubated at 27°C for 24 h, for the chemically corrected assay cells were treated with corrector for 24 h at 37°C. On the day of analysis, cells were washed five times with Dulbecco’s Phosphate-Buffered Saline (DPBS) containing Ca^2+ and Mg^2+ (Life Technologies) using a Microplate Washer (BioTek). Then, cells were treated with 10 μM forskolin and the desired concentration of potentiator in a volume of 30 μl and the plates were incubated at room temperature for 10 min, a timepoint optimized in previous experiments showing good window (positive control/negative control > 2) and signal to background ratio. The YFP fluorescence was recorded for 2 min, starting immediately before addition of 30 μl NaI buffer (375 mM NaI, 7.5 mM KI, 1.76 mM KH2PO4, 10.1 mM Na2HPO4, 13.75 mM glucose) to the wells, using a FDSS/μCell (Hamamatsu) fluorescence reader with a 480 nm excitation filter and a 540 nm emission filter. The capacity of potentiators to increase CFTR channel function was expressed as 1-[fluorescence 36 s after NaI addition (F)/fluorescence before NaI addition (F0)], a timepoint optimized previously, resulting in an optimal signal window. Data was normalized using the formula: normalized response = 100^∗ (absolute response – negative control response)/(VX770 response – negative response) as such, VX770 response corresponds to 100. For Dose-response experiments, data was fitted using a 4 parameter hill function of the form Response = Bottom + (Top-Bottom)/(1 + 10ˆ((LogEC50-concentration)^∗HillSlope)) to determine EC50 values.

[2] = target: T2, G551D CFTR (Homo sapiens, UniProt P13569, G551D); conditions: ref Jih and Hwang (2013); cited from earlier work
T2 construct: expressed in transfected cells; host or cells: HEK293, transient (jetPEI)

[3] = patients carrying the G551D mutation; ref Ramsey et al., 2011; cited from earlier work
[4] = target: T1, F508del CFTR; test: Cell surface expression assay, HRP-tagged F508del CFTR in CFBe41o- cells; assay type: cell-based; set-up: expressed in transfected cells; conditions: 24 h co-incubation with 10 μM VX809, concentration range of potentiator
Protocol: CFBE41o^- TetON cells expressing HRP tagged F508del-CFTR ([Veit et al., 2012]) were seeded at a density of 4,000 cells per well in white 384-well plates (Greiner). Medium containing 500 ng/ml doxycycline was used to induce expression of the F508del-CFTR–HRP construct. After 3 days, cells were treated with corrector and/or potentiator compounds and transferred to an incubator at 33°C. On day 4, cells were washed 5 times with PBS containing Ca^2+ and Mg^2+ using a Bio-Tek plate washer and incubated with a chemiluminescent HRP substrate (SuperSignal West Pico Chemiluminescent Substrate, Thermo Scientific) for 15 min. Chemiluminescence was measured using an Envision plate reader (Perkin Elmer).

[5] = target: T1, F508del CFTR; test: TECC on corrector rescued F508del/F508del primary HBE cells; assay type: cell-based; set-up: endogenous in cells; host or cells: primary human bronchial epithelial cells, F508del/F508del donors (McGill University; University of North Carolina)
Protocol: Bronchial epithelial cells isolated from transplanted lungs from wild-type (WT), CF patients homozygous for the F508del mutation or heterozygous G551D/F508del or R334W/F508del patients, were obtained from McGill University (Montreal, Canada) and University of North Carolina (Chapel Hill, NC, United States). Cells were isolated from lungs obtained from donors undergoing a planned transplantation. These primary cells were cultured directly on type IV collagen-coated polycarbonate Transwell supports with a diameter of 6.5 mm and pore size of 0.4 μm (Costar, #3397) for 18–25 days in air liquid (ali) interface essentially as previously described ([Fulcher et al., 2005]). Trans-epithelial clamp circuit (TECC) recordings were performed using the TECC instrument developed and sold by EP Design (Bertem, Belgium). During the recording, the epithelial cells were bathed in a NaCl-Ringer solution (120 mM NaCl, 20 mM HEPES, 1.2 mM CaCl2, 1.2 mM MgCl2, 0.8 mM KH2PO4, 0.8 mM K2HPO4, 5 mM glucose, pH 7.4) on both the basolateral (640 μl) and the apical side (160 μl) and kept at 37°C. Apical amiloride was used to inhibit the endogenous ENaC currents (100 μM) while forskolin (10 μM) was applied on both the apical and basolateral sides to stimulate CFTR. All triggers and compounds used during the experiment were first dissolved in DMSO to a 1000 X concentrated solution, just prior to treatment a 10 X stock was prepared in the NaCl-Ringer solution which was used for addition of the correct concentration of trigger and or compound during the experiment. When using the F508del CFTR mutant, VX809 (3 μM) or GLPG2222 (1 μM) corrector was added on the basolateral side for 24 h to partially rescue F508del CFTR before adding the potentiator. For chronic experiments, the potentiator range was also added to the cells for 24 h and reapplied in the NaCl-ringer buffer prior to the electrophysiological recording. Measurements were done during a 20 min timeframe with recordings every 2 min. The transepithelial potential (PD) and transepithelial resistance (Rt) were measured in an open circuit and transformed to Ieq using Ohm’s law. The increase in Ieq (Δ Ieq) was used as a measure for the increased CFTR activity. EC50 values were generated by measuring impact of different concentrations of compound on Ieq in primary cells. For this purpose each transwell was treated with a different compound concentration. CFTRInh-172 was used at 10 μM to assess the specificity of the response. […] Data was fitted using a 3 parameter hill function of the form Response = Bottom + (Top-Bottom)/(1 + 10ˆ((LogEC50-concentration))) to determine EC50 values.

T1 sequence (P13569 with tags, fused parts or gaps DEL508-508): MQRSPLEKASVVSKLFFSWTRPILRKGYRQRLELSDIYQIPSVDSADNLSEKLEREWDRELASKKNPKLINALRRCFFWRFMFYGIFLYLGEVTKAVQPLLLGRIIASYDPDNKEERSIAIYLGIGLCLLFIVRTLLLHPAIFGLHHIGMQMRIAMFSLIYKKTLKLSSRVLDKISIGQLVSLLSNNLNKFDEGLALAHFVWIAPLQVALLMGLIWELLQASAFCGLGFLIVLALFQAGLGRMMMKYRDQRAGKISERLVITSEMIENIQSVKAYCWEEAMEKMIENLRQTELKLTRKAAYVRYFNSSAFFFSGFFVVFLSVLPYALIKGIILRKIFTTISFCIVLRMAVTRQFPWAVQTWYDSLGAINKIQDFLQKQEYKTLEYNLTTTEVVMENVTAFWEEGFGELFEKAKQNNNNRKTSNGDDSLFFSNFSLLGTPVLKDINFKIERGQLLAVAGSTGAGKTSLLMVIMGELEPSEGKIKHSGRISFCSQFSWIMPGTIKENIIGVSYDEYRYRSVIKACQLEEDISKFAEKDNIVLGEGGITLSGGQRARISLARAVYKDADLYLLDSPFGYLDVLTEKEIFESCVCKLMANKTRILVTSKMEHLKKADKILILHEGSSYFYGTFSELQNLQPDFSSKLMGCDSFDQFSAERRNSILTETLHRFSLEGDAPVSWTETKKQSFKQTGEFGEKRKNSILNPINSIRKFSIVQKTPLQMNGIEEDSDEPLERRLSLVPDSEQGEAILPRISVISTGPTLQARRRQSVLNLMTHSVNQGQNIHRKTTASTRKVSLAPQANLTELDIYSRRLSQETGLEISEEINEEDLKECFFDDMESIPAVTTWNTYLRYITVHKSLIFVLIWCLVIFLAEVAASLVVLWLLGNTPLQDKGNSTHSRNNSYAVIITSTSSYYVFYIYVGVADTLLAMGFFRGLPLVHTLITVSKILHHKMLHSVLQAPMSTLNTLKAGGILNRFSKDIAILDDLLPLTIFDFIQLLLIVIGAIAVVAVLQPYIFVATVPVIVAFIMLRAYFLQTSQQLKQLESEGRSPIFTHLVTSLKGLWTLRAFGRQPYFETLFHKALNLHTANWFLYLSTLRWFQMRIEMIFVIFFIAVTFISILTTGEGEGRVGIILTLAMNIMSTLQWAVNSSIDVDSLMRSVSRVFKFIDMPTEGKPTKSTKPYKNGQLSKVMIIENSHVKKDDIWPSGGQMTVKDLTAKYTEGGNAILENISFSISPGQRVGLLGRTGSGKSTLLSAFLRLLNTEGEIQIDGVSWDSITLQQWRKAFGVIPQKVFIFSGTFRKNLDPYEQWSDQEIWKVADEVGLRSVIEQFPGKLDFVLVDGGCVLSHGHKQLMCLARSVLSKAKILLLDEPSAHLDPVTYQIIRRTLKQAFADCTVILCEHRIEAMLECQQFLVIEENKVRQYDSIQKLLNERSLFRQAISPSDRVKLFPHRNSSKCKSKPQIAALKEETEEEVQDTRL
T2 sequence (P13569 whole entry G551D): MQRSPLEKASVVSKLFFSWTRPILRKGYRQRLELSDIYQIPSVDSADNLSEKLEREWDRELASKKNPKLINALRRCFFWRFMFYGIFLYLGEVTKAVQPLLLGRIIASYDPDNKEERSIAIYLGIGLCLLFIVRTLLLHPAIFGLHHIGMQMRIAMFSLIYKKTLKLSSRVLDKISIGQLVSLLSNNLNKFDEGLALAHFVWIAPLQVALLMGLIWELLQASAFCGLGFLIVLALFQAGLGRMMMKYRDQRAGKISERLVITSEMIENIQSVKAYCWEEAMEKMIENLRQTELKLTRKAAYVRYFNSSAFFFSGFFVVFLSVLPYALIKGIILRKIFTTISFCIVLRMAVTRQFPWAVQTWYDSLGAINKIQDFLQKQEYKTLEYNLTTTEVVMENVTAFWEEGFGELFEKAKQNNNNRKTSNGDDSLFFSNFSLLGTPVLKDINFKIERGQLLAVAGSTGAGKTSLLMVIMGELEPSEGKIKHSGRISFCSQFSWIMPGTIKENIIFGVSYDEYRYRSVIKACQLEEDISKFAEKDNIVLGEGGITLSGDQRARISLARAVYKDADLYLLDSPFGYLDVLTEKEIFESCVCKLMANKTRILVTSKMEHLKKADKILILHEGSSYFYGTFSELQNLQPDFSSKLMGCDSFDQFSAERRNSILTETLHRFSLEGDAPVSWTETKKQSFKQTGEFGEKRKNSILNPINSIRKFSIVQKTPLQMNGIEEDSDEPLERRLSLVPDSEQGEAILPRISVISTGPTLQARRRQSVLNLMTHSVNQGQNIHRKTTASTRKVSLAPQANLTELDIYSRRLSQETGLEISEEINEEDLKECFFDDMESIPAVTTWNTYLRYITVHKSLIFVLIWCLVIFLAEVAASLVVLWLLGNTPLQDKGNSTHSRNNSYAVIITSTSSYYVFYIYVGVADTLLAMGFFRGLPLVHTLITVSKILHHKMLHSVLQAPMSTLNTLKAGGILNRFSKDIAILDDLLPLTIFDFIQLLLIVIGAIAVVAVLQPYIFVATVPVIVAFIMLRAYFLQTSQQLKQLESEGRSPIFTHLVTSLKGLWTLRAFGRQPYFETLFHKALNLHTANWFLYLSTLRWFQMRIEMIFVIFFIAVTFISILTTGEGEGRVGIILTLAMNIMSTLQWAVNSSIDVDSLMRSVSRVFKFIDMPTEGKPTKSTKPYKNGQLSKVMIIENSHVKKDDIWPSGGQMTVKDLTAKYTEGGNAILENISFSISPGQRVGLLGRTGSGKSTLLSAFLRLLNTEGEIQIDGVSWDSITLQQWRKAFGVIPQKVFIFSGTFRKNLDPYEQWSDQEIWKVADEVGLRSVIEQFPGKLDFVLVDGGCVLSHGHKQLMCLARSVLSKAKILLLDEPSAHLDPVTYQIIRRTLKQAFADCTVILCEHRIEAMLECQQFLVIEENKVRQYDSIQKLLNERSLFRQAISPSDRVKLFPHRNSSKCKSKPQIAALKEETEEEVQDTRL

SMILES: CC(C)(C)c1cc(C(C)(C)C)c(NC(=O)c2c[nH]c3ccccc3c2=O)cc1O [VX770, N -(2,4-Di-tert-butyl-5-hydroxyphenyl)-4-oxo-1,4-dihydroquinoline-3-carboxamide, reference compound]
- EC50 [1]: 126 ± 10.9 nM
- Increase of macroscopic G551D CFTR current [2]: 10 fold
- Improvement of lung function [3]: 10.6%
- Effect on cell surface expression of VX809 rescued F508del CFTR [4]: reduces the level of cell surface expressed F508del CFTR at all concentrations tested
- Decrease in corrected F508del CFTR channel activity in chronic versus acute setting ([5]; 10 μM potentiator, corrected F508del/F508del HBE, 24 h): decrease in F508del CFTR channel activity
- EC50 ([5]; VX809 3 μM 24 h, acute potentiator addition, 10 μM forskolin, read-out: EC50 on VX809 corrected F508del/F508del HBEs (TECC)): 80.7 ± 21.7 nM
